The source made the active and inactive calls.
How the values were obtained:
[1] = biological target: Botulinum neurotoxin type F (Clostridium botulinum, UniProt P30996); test: High-throughput multiplex microsphere dose response for inhibitors of toxin protease, specifically Botulinum neurotoxin light chain F protease, compounds from Cherry Pick 02.; format: functional; conditions: read-out: EC50_MICROM
[2] = biological target: SWI/SNF-related matrix-associated actin-dependent regulator of chromatin subfamily A member 2 (Homo sapiens, UniProt P51531); test: Luminescence-based cell-based high throughput dose response assay to identify activators of the function of SWI/SNF related, matrix associated, actin dependent regulator of chromatin, subfamily a, member 2 (SMARCA2, BRM).; format: functional
[3] = Counterscreen for activators of the function of SWI/SNF related, matrix associated, actin dependent regulator of chromatin, subfamily a, member 2 (SMARCA2, BRM): Luminescence-based cell-based high throughput dose response assay to identify non-selective compounds using the VP16 reporter assay.; format: functional
[4] = biological target: T1, Rac GTPase-activating protein 1 (Homo sapiens, UniProt Q9H0H5); test: MgcRacGAP GTPase-activating activity inhibitors, confirmation, biochemical, ADP Hunter fluorescence, primary and confirmatory (AID 624330); format: functional
T1 sequence (Q9H0H5 whole entry): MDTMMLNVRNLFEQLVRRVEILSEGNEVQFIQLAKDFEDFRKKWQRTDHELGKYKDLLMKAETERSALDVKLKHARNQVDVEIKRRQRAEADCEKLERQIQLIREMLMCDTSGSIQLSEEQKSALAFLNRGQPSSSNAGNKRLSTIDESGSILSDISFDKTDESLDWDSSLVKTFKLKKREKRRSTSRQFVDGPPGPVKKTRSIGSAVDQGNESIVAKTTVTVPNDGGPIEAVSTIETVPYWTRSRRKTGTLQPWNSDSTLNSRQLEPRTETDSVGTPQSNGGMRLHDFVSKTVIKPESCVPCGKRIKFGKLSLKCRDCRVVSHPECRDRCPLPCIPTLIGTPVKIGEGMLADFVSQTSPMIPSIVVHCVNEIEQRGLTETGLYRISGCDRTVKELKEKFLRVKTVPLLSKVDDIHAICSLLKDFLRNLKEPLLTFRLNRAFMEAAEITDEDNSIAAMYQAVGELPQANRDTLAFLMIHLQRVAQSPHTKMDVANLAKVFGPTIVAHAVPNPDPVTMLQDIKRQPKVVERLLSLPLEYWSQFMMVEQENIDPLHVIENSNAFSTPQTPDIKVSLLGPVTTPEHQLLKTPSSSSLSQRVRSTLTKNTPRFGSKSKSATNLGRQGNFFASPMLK

[5] = biological target: Matrix metalloproteinase-14 (Homo sapiens, UniProt P50281); test: Dose Response confirmation of uHTS hits for a small molecule inhibitors of MT1-MMP activation in a fluorescence assay set 2.; format: functional
[6] = biological target: T2, Heat shock factor protein 1 (Mus musculus, UniProt P38532); test: HSF1 potentiators in luciferase reporter cells, confirmation, cell-based, NIH3T3, luminescence, dose retest (AID 435004); format: functional;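 note: stress induced by proteasome inhibitor MG132 added 30 min after compound; luciferase reporter driven by HSF1 response element in NIH3T3 cells; actives raise luminescence as potentiators of the MG132 stress response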
T2 sequence (P38532 whole entry): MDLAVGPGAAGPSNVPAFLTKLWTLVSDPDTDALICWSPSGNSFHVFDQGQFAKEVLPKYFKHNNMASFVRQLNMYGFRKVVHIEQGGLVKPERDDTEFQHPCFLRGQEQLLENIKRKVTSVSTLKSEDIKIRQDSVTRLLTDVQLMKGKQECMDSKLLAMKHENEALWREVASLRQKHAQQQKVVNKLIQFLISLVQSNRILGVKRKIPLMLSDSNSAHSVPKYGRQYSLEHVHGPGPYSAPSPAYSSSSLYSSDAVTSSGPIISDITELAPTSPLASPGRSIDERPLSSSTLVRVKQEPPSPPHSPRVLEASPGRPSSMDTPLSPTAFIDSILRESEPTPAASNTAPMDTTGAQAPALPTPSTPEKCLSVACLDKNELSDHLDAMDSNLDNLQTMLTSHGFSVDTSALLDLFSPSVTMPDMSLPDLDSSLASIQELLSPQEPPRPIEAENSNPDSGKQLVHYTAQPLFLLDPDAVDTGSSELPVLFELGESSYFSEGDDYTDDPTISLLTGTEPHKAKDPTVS

[7] = biological target: FAD-linked sulfhydryl oxidase ALR (Homo sapiens, UniProt P55789); test: inhibitors of human ALR sulfhydryl oxidase, dose response, biochemical, H2O2 detection, luminescence, cherry-pick (AID 493248)
[8] = biological target: T3, Replicative DNA helicase DnaB (Mycobacterium tuberculosis, UniProt P9WMR3); test: DnaB intein splicing inhibitors, dose response, biochemical, cell-free fluorescence (AID 449749); format: functional
T3 sequence (P9WMR3 whole entry): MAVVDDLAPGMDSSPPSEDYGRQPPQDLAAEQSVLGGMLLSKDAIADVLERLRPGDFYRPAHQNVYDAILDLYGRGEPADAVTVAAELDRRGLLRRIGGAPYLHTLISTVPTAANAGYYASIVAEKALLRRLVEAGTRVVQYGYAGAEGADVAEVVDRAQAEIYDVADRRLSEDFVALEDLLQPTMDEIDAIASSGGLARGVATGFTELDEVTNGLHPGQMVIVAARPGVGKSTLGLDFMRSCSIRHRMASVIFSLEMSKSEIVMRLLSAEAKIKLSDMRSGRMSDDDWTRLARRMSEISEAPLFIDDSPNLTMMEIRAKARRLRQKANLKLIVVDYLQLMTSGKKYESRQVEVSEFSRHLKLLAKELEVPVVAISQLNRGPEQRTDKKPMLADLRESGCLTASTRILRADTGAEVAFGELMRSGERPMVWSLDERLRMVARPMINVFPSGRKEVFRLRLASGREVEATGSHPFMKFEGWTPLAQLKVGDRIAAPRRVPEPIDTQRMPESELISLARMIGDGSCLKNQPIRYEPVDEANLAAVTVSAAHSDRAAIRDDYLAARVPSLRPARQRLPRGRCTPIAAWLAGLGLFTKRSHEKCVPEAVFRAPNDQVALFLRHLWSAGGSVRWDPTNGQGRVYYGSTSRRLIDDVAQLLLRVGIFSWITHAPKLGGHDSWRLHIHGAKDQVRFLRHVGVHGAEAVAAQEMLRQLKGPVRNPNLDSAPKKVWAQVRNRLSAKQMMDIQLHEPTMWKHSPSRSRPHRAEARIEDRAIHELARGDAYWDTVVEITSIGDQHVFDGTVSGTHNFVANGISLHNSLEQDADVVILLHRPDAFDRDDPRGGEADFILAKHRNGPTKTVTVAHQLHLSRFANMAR

[9] = biological target: T4, Protein RecA (Mycobacterium tuberculosis, UniProt P9WHJ3); test: Fluorescence Cell-Free Homogeneous Dose Retest to Identify Inhibitors of RecA-Intein Splicing Activity. [Related pubchem assays (depositor defined):AID2097, AID2223, AID489010, AID492950]; format: functional
T4 sequence (P9WHJ3 whole entry): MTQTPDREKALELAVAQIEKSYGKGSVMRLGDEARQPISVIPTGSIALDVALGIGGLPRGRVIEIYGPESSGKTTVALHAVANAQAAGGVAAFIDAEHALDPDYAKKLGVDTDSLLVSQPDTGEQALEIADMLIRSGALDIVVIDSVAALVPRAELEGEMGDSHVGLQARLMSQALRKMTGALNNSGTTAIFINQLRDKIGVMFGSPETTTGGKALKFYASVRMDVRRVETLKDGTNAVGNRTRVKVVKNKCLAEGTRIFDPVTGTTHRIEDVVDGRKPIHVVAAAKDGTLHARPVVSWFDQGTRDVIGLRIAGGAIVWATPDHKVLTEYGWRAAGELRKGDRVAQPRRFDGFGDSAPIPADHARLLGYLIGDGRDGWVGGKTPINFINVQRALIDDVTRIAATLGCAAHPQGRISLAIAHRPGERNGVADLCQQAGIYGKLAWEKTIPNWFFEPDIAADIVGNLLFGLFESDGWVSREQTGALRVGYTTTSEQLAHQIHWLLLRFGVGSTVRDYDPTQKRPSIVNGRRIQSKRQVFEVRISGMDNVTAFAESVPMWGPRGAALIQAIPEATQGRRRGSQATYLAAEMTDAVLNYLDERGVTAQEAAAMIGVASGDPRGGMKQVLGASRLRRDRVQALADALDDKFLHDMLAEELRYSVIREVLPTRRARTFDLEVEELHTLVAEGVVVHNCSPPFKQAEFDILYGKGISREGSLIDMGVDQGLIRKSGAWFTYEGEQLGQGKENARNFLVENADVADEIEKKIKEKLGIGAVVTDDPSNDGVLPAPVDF

[10] = Shn3 3'UTR reporter inhibitors, dose response, cell-based, Clone20 osteoblasts, firefly luciferase, cherry-picked (AID 624132); format: functional;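 note: firefly luciferase luminescence from reporter carrying the Shn3 3'UTR in osteoblasts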
[11] = HepG2 cell cytotoxicity, dose response, cytotoxicity control for Shn3 inhibitor project, CellTiter-Glo, cherry-picked (AID 624134); format: functional, cell-based
[12] = control 3'UTR Renilla luciferase suppression, dose response, counter-screen for Shn3 inhibitor project, cell-based, Clone20-Shn3RL, cherry-picked (AID 624133); format: functional
[13] = Fluorescence-based cell-based high throughput dose response assay for inhibitors of the interaction of nucleotide-binding oligomerization domain containing 2 (NOD2) and the receptor-interacting serine-threonine kinase 2 (RIPK2).; format: functional; conditions: Homo sapiens
[14] = biological target: ATP-binding cassette sub-family B member 6 (Homo sapiens, UniProt Q9NP58); test: ABCB6 transporter inhibitors, porphyrin accumulation, dose response, flow cytometry, K562-ABCB6 cells, cherry pick 02 (AID 624487); format: functional; conditions: read-out: EC50_MICROM
[15] = test system: HEK293; test: cells; conditions: Homo sapiens
[16] = test system: HEK293; test: cells; conditions: Homo sapiens; remark: listed apart in the source

Botulinum neurotoxin type F, sequence (P30996 1-436 limits assumed): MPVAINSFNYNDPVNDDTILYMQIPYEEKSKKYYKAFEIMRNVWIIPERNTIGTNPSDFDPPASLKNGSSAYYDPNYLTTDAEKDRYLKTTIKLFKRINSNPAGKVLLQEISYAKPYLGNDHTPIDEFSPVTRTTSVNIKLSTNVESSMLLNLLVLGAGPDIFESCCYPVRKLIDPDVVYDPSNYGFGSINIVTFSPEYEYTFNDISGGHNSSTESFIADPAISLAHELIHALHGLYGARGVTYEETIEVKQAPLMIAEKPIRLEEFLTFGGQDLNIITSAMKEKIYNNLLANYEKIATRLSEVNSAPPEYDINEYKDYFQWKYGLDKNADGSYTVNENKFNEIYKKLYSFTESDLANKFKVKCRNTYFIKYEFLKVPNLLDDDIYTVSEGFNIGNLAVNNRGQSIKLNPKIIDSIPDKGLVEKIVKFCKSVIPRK
FAD-linked sulfhydryl oxidase ALR, sequence (P55789 whole entry): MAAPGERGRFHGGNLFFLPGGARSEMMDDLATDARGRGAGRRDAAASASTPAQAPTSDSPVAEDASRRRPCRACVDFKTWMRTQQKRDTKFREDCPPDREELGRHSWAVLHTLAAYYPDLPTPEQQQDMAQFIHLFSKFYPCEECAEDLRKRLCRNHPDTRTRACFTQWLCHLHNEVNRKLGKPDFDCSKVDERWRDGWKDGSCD
ATP-binding cassette sub-family B member 6, sequence (Q9NP58 whole entry): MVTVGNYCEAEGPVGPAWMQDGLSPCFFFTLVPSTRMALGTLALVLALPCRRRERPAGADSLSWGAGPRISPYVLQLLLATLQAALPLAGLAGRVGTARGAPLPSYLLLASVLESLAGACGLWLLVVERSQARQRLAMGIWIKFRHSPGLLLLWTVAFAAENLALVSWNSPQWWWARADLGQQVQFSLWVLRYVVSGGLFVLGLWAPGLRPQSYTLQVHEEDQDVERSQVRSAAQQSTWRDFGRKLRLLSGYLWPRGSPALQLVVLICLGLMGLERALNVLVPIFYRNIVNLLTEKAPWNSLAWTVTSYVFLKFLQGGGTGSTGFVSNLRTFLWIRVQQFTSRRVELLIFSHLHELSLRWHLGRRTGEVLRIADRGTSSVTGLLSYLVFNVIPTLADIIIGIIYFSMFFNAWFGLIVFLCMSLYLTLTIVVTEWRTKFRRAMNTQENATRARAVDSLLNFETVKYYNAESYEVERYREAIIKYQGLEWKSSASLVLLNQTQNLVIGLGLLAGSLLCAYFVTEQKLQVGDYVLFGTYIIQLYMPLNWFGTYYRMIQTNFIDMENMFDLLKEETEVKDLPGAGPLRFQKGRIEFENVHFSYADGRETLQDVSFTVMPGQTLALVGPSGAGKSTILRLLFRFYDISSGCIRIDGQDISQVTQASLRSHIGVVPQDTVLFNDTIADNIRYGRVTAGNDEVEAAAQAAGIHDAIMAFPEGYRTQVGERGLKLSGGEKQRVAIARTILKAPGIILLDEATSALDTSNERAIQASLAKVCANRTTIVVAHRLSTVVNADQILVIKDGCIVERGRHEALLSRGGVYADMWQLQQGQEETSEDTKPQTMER
SWI/SNF-related matrix-associated actin-dependent regulator of chromatin subfamily A member 2, sequence (P51531 whole entry): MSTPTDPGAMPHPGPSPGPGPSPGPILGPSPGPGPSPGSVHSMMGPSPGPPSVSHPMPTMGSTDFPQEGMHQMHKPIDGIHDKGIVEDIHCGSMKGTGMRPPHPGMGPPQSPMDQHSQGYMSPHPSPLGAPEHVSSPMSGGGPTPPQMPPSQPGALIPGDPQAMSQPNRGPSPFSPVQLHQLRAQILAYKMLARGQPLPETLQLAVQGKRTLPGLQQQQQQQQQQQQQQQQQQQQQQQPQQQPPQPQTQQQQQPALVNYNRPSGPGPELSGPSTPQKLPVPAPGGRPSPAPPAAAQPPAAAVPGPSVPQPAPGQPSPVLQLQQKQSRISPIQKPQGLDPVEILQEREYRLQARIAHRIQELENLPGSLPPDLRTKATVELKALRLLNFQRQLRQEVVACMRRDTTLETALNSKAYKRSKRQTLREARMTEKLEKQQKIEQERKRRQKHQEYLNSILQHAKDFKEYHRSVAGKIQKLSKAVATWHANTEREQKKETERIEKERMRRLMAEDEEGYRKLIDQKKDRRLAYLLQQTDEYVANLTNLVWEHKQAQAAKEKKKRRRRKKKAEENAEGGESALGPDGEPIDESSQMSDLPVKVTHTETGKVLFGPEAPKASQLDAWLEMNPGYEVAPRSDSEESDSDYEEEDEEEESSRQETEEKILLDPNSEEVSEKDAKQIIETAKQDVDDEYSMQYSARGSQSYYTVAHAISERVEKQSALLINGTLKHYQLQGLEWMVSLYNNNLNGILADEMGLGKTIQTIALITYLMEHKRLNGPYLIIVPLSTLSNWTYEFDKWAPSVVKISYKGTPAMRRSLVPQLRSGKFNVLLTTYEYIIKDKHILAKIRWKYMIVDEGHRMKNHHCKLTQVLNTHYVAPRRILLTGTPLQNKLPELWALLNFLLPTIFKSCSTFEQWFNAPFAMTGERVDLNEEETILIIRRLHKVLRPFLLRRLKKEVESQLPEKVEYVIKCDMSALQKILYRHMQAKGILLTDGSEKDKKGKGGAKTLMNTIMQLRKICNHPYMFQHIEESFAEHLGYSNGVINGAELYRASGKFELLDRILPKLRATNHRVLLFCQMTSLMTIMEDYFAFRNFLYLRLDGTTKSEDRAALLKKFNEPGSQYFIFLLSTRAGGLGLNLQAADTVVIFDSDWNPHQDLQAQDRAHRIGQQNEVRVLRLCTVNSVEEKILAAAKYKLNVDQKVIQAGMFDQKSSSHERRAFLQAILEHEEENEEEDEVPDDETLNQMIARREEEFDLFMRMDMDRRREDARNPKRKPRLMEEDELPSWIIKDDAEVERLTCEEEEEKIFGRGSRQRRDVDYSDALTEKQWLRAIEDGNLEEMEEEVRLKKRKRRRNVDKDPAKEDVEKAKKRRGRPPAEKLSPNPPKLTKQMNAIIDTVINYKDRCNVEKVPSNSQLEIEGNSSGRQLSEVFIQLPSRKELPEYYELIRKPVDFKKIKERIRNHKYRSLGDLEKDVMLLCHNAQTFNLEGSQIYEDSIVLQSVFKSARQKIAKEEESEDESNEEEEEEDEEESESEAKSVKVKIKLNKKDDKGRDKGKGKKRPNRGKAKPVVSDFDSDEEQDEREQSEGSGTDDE

SMILES: Cc1cc2cc(CNC(=O)c3ccc(S(=O)(=O)N4CCCCC4)cc3)ccc2[nH]1
- EC50 [1]: > 20 µM (inactive)

SMILES: COc1ccc(-c2nc(C#N)c(NCC3CCCO3)o2)cc1 (stereo unspecified)
- EC50 [2]: > 91.1 µM (inactive)
- EC50 [3]: > 91.1 µM (inactive)

SMILES: CN(C)/C=C/c1oc2ccc(O)cc2c1[N+](=O)[O-]
- IC50 [4]: 14 µM (active)
- IC50 [5]: 26.2 µM (inactive)

SMILES: Cc1cccc(C)c1NC(=O)c1nc(S(=O)(=O)Cc2ccccc2)ncc1Cl
- EC50 [6]: 9.13 µM (active)
- AC50 [7]: 1.74 µM (active)
- AC50 [8]: 4.34 µM (active)
- EC50 [9]: 6.63 µM (active)
- AC50 [10]: 4.33 µM (active)
- AC50 [11]: 22.9 µM (active)
- AC50 [12]: 10.6 µM (active)
- IC50 [13]: 4.11 µM (active)
- EC50 [14]: 38.1 µM (active)
- EC50 [15]: > 59.6 µM (inactive)
- EC50 [16]: > 59.6 µM (inactive)

From ChEMBL document CHEMBL1201862, “PubChem BioAssay data set” (2004)
